Reference: patent US5556942A, “Glutathione S-transferase-activated compounds” (priority 1994, dated 1996)

How the values were obtained:
[1] = molecular target: recombinant human GST P1-1 (Homo sapiens, UniProt P09211); assay: Decomposition of compound by GST P1-1 followed by HPLC; format: biochemical; details: for decomposition rate versus background, P1: 37°; for IN VITRO HALF LIVES, P1-1: 3 μM recombinant human GST P1-1, compound 300 μM, disappearance by HPLC
Protocol: (§1) The compound to be tested was dissolved in 0.2M phosphate buffer and a solution of GST was added. The final concentration was 0.3 mM test compound and 0.006 mM GST, pH 7.3 for TER 230; for TER 231 GST was 0,003 mM, pH 7.1. The solution was incubated at 37°. Decomposition was followed by HPLC. The column was J. T. Baker C18 250×4.6 mm with 5μ particles. The A buffer was 0.05M ammonium acetate, pH 5.5; 5% CH3 CN; B buffer was 70% CH3 CN in A.
(§2) The column was run with a gradient of 20%-50% B over 15 min. then to 100% B in 3 mins; then back to 20% B over 6 mins. A 10 μL sample was injected and the flow rate was 1 ml/min. Aliquots were removed and catalytic decomposition was quenched by addition of acetic acid. Overnight HPLC utilizing an autosampler were used; the rates of decomposition were calculated by measuring the rate of disappearance of the peak versus an internal standard which was 0.06 mM of an inert peptide marker.
(§3) In addition, half-lives were determined as described above using 3 μM recombinant human GST P1-1, A1-1 or M1a-1a starting with a concentration of the compound to be tested at 300 μM and monitoring disappearance using HPLC.

[2] = molecular target: T1, recombinant human GST M1a-1a (Homo sapiens, UniProt P09488); assay: Decomposition of compound by GST M1a-1a followed by HPLC; format: biochemical; details: for decomposition rate versus background, M1a: 37°; for IN VITRO HALF LIVES, M1a-1a: 3 μM recombinant human GST M1a-1a, compound 300 μM, disappearance by HPLC
T1 sequence (P09488 2-218 limits assumed): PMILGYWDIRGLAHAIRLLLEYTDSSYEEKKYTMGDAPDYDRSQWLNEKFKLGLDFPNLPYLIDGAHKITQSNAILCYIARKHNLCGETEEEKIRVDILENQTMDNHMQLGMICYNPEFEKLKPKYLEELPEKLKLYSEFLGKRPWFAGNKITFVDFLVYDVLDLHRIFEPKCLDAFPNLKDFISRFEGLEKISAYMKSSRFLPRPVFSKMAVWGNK
Protocol: as §1, §2, §3

[3] = molecular target: T2, recombinant human GST A1-1 (Homo sapiens, UniProt P08263); assay: Decomposition of compound by GST A1-1 followed by HPLC; format: biochemical; details: for decomposition rate versus background, A1: 37°; for IN VITRO HALF LIVES, A1-1: 3 μM recombinant human GST A1-1, compound 300 μM, disappearance by HPLC
T2 sequence (P08263 1-222): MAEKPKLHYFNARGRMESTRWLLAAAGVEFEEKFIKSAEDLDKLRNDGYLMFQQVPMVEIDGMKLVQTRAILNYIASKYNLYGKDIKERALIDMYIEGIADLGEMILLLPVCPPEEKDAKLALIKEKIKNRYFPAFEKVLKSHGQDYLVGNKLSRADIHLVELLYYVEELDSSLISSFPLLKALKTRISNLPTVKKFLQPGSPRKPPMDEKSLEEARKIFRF
Protocol: as §1, §2, §3

HT29 human cancer cells = details: preliminary results
[4] = system: human GST P1-1, A1-1, M1a-1a; details: from in vitro half lives with 3 μM GST, 300 μM compound
Protocol: as §3

[5] = no GST; compound 300 μM; disappearance by HPLC
Protocol: as §1, §2, §3

[6] = system: MCF-7 cells transfected with GST P1-1; details: for sensitization of cells with high P1-1 levels compared to control-vector cells: 2 hours treatment, assayed on day 5, FIGS. 4a-4c
[7] = system: MCF-7 cells selected for cyclophosphamide resistance (MCF-CTX); details: standard clonogenic assay
Excerpt: Also tested were MCF-7 cells selected for cyclophosphamide resistance (MCF-CTX) and its wild-type counterpart.

MX-1 tumor = details: single intraperitoneal injection, 300 mg/kg or 400 mg/kg, monitored one month; FIG. 5
Protocol: The prodrugs of the invention were tested in Balb/C nu/nv mice. The mice were implanted subcutaneously with MX-1 tumor pieces and then treated with a single intraperitoneal injection once tumors reached an average of 100 mm^3 (which is at approximately day 18 post-implant). Tumor growth and body weight were monitored for one month following treatment. […] In FIG. 5, the squares represent controls; circles represent 300 mg/kg of TER 286; triangles represent 400 mg/kg of the same drug. The points shown are the mean ±SEM of 5-7 mice per group.

[8] = system: GM-CFU in femoral bone marrow
Protocol: In the assay, B6D2F1 mice were treated with various doses of TER 286 intraperitoneally either as a single injection or as five daily injections. Femoral bone marrows were harvested 24 hours later and assayed for GM-CFU by the method of East, C. J. et al. Cancer Chemother Pharmacol (1992) 31:123-126.

[9] = 0.3 mM TER 230, 0.006 mM GST, pH 7.3, 0.2M phosphate buffer, FIG. 1
[10] = 0.3 mM TER 231, GST 0,003 mM, pH 7.1, 0.2M phosphate buffer, FIG. 2
[11] = TER 286 similarly tested, FIG. 3

Chain of recombinant human GST P1-1 (P09211 2-210 limits assumed): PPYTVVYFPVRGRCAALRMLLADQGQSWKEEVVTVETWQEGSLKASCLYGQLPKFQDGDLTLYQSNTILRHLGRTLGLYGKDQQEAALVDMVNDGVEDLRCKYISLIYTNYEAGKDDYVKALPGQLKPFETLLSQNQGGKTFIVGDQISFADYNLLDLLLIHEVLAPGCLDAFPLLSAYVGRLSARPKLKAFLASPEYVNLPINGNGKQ

| Compound | toxicity to HT29 cells (HT29 human cancer cells) | IN VITRO HALF LIVES, P1-1 [1] | Selectivity (GST isoenzyme that selectively cleaves the prodrug) [4] | IN VITRO HALF LIVES, CONTROL [5] | IN VITRO HALF LIVES, M1a-1a [2] | sensitization of cells with high P1-1 levels compared to control-vector cells [6] | IN VITRO HALF LIVES, A1-1 [3] | further results |
| --- | --- | --- | --- | --- | --- | --- | --- | --- |
| CCN(CC)P(=O)(OCCS(=O)(=O)CC(NC(=O)CCC(N)C(=O)O)C(=O)NCC(=O)O)N(CC)CC (stereo not drawn) [TER 230, γ-glutamyl-α-aminopropionyl (β-(2-ethyl-N,N,N,N,tetraethylphosphoramidate)sulfonyl)-glycine] | is not |  |  |  |  |  |  | decomposition rate versus background, P1 [1, 9]: about 2 times faster than background; decomposition rate versus background, M1a [2, 9]: about 4 times faster than background; decomposition rate versus background, A1 [3, 9]: does not accelerate the decomposition of TER 230 above background |
| NC(CCC(=O)NC(CS(=O)(=O)CCOP(=O)(N(CCCl)CCCl)N(CCCl)CCCl)C(=O)NCC(=O)O)C(=O)O (stereo not drawn) [TER 231, γ-Glutamyl-α-Aminopropionyl (β-(2-ethyl-N,N,N,N-tetra(2'-chloro)ethylphosphoroamidate)sulfonyl)gl ycine] | toxic to these cells | 110 min | by M1a-1a | 350 min | 25 min | 2 fold | 110 min | decomposition rate versus background, P1 [1, 10]: 5 times faster than background; decomposition rate versus background, M1a [2, 10]: about 12 times faster than background; sensitivity of π-transfected MCF-7 cells versus untransfected cells ([6]; π-transfect with elevated P1 GST): more sensitive; decomposition rate versus background, A1 [3, 10]: 5 times faster than background |
| NC(CCC(=O)NC(CS(=O)(=O)CCOP(=O)(N(CCCl)CCCl)N(CCCl)CCCl)C(=O)N[C@@H](C(=O)O)c1ccccc1)C(=O)O (stereo partly drawn) [TER 286, γ-glutamyl-α-Amino-β-((2-ethyl-N,N,N,N-tetra(2'-chloro) ethylphosphoroamidate)sulfonyl)propionyl-(R)-(-)phenylglycine] |  | 50 min | selectively cleaved by P1-1 and A1-1 | 275 min | 225 min | 4 fold | 65 min | acceleration of cleavage versus background, P1-1 [1, 11]: roughly six; factor by which CTX-resistant cells are more sensitive than CTX-sensitive cells [7]: 1.8; tumor volume in treated mice compared to controls (MX-1 tumor): greatly diminished; acceleration of cleavage versus background, M1a-1a [2, 11]: negligible acceleration of cleavage; GM-CFU, % of controls ([8]; mouse, in vivo): up to 180%; optimum dosage range for bone marrow GM-CFU ([8]; mouse, in vivo): 100 to 200 mg/kg; acceleration of cleavage versus background, A1-1 [3, 11]: roughly six |
| N[C@@H](Cc1ccc(N(CCCl)CCCl)cc1)C(=O)O [melphalan, reference compound] |  |  |  |  |  |  |  | toxicity with respect to bone marrow (GM-CFU) ([8]; FIG. 7): extreme toxicity |
| γ-glutamyl-α-Amino-β-(1-phenyl, (2'ethyl-N,N,N,N-tetra(2'-chloro)ethylphosphoroamidate)sulfonyl) propionyl glycine [TER 296] |  | 2.5 min | selectively cleaved by P1-1 |  | 50 min |  | 200 min |  |
| γ-glutamyl-α-Amino-β-((2-ethyl-N,N,N,N-tetra(2'-chloro)eth ylphosphoroamidate)sulfonyl)propionylphenylalanine [TER 303] |  | 310 min | selectively cleaved by A1-1 |  | 200 min |  | 45 min |  |
